In ChEMBL document CHEMBL2440076, “New triarylpyrazoles as broad-spectrum anticancer agents: design, synthesis, and biological evaluation” (Eur J Med Chem, 2013):

Columns and labels:
Assay type in all cases: functional
HT-29 = assay: Growth inhibition of human HT-29 cells assessed as cell growth at 3X10'-7 M after 48 hrs by sulforhodamine B assay; conditions: HT-29, 48 h, read-out: Activity
SF-539 [1] = assay: Growth inhibition of human SF539 cells assessed as cell growth at 3X10'-6 M after 48 hrs by sulforhodamine B assay; conditions: SF-539, 48 h, read-out: Activity
OVCAR-8 [2] = assay: Growth inhibition of human OVCAR8 cells assessed as cell growth at 3X10'-8 M after 48 hrs by sulforhodamine B assay; conditions: OVCAR-8, 48 h, read-out: Activity
TK-10 [3] = assay: Growth inhibition of human TK10 cells assessed as cell growth at 3X10'-7 M after 48 hrs by sulforhodamine B assay; conditions: TK-10, 48 h, read-out: Activity
OVCAR-8 [4] = assay: Growth inhibition of human OVCAR8 cells assessed as cell growth at 3X10'-9 M after 48 hrs by sulforhodamine B assay; conditions: OVCAR-8, 48 h, read-out: Activity
OVCAR-3 = assay: Growth inhibition of human OVCAR3 cells assessed as cell growth at 3X10'-5 M after 48 hrs by sulforhodamine B assay; conditions: OVCAR-3, 48 h, read-out: Activity
HCT-15 [5] = assay: Growth inhibition of human HCT15 cells assessed as cell growth at 3X10'-9 M after 48 hrs by sulforhodamine B assay; conditions: HCT-15, 48 h, read-out: Activity
HCT-116 [6] = assay: Growth inhibition of human HCT116 cells assessed as cell growth at 3X10'-6 M after 48 hrs by sulforhodamine B assay; conditions: HCT-116, 48 h, read-out: Activity
HCT-15 [7] = assay: Growth inhibition of human HCT15 cells assessed as cell growth at 3X10'-7 M after 48 hrs by sulforhodamine B assay; conditions: HCT-15, 48 h, read-out: Activity
SF-539 [8] = assay: Growth inhibition of human SF539 cells assessed as cell growth at 3X10'-8 M after 48 hrs by sulforhodamine B assay; conditions: SF-539, 48 h, read-out: Activity
UO-31 = assay: Growth inhibition of human UO31 cells assessed as cell growth at 3X10'-6 M after 48 hrs by sulforhodamine B assay; conditions: UO-31, 48 h, read-out: Activity
ACHN = assay: Growth inhibition of human ACHN cells assessed as cell growth at 3X10'-6 M after 48 hrs by sulforhodamine B assay; conditions: read-out: Activity
SK-MEL-5 [9] = assay: Growth inhibition of human SK-MEL-5 cells assessed as cell growth at 3X10'-6 M after 48 hrs by sulforhodamine B assay; conditions: SK-MEL-5, 48 h, read-out: Activity
786-0 [10] = assay: Growth inhibition of human 786-0 cells assessed as cell growth at 3X10'-7 M after 48 hrs by sulforhodamine B assay; conditions: 786-0, 48 h, read-out: Activity
OVCAR-8 [11] = assay: Growth inhibition of human OVCAR8 cells assessed as cell growth at 3X10'-5 M after 48 hrs by sulforhodamine B assay; conditions: OVCAR-8, 48 h, read-out: Activity
K562 [12] = assay: Growth inhibition of human K562 cells assessed as cell growth at 3X10'-5 M after 48 hrs by sulforhodamine B assay; conditions: K562, 48 h, read-out: Activity
COLO 205 = assay: Growth inhibition of human COLO205 cells assessed as cell growth at 3X10'-5 M after 48 hrs by sulforhodamine B assay; conditions: COLO 205, 48 h, read-out: Activity
HOP-92 [13] = assay: Growth inhibition of human HOP92 cells assessed as cell growth at 3X10'-8 M after 48 hrs by sulforhodamine B assay; conditions: HOP-92, 48 h, read-out: Activity
[14] = Growth inhibition of human NCI-ADR-RES cells assessed as cell growth at 3X10'-7 M after 48 hrs by sulforhodamine B assay; conditions: read-out: Activity
NCI-H226 = assay: Growth inhibition of human NCI-H226 cells assessed as cell growth at 3X10'-5 M after 48 hrs by sulforhodamine B assay; conditions: NCI-H226, 48 h, read-out: Activity
SNB-75 = assay: Growth inhibition of human SNB75 cells assessed as cell growth at 3X10'-7 M after 48 hrs by sulforhodamine B assay; conditions: SNB-75, 48 h, read-out: Activity
T47D = assay: Growth inhibition of human T47D cells assessed as cell growth at 3X10'-6 M after 48 hrs by sulforhodamine B assay; conditions: read-out: Activity
TK-10 [15] = assay: Growth inhibition of human TK10 cells assessed as cell growth at 3X10'-6 M after 48 hrs by sulforhodamine B assay; conditions: TK-10, 48 h, read-out: Activity
HOP-92 [16] = assay: Growth inhibition of human HOP92 cells assessed as cell growth at 3X10'-7 M after 48 hrs by sulforhodamine B assay; conditions: HOP-92, 48 h, read-out: Activity
DU-145 = assay: Growth inhibition of human DU145 cells assessed as cell growth at 3X10'-5 M after 48 hrs by sulforhodamine B assay; conditions: DU-145, 48 h, read-out: Activity
HCT-116 [17] = assay: Growth inhibition of human HCT116 cells assessed as cell growth at 3X10'-8 M after 48 hrs by sulforhodamine B assay; conditions: HCT-116, 48 h, read-out: Activity
SN12C = assay: Growth inhibition of human SN12C cells assessed as cell growth at 3X10'-7 M after 48 hrs by sulforhodamine B assay; conditions: read-out: Activity
A498 = assay: Growth inhibition of human A498 cells assessed as cell growth at 3X10'-6 M after 48 hrs by sulforhodamine B assay; conditions: A498, 48 h, read-out: Activity
OVCAR-4 = assay: Growth inhibition of human OVCAR4 cells assessed as cell growth at 3X10'-7 M after 48 hrs by sulforhodamine B assay; conditions: OVCAR-4, 48 h, read-out: Activity
PC-3 = assay: Growth inhibition of human PC3 cells assessed as cell growth at 3X10'-9 M after 48 hrs by sulforhodamine B assay; conditions: PC-3, 48 h, read-out: Activity
IGROV-1 = assay: Growth inhibition of human IGROV1 cells assessed as cell growth at 3X10'-6 M after 48 hrs by sulforhodamine B assay; conditions: IGROV-1, 48 h, read-out: Activity
A549 [18] = assay: Growth inhibition of human A549/ATCC cells assessed as cell growth at 3X10'-9 M after 48 hrs by sulforhodamine B assay; conditions: A549, 48 h, read-out: Activity
A549 [19] = assay: Growth inhibition of human A549/ATCC cells assessed as cell growth at 3X10'-5 M after 48 hrs by sulforhodamine B assay; conditions: A549, 48 h, read-out: Activity
786-0 [20] = assay: Growth inhibition of human 786-0 cells assessed as cell growth at 3X10'-8 M after 48 hrs by sulforhodamine B assay; conditions: 786-0, 48 h, read-out: Activity
OVCAR-5 = assay: Growth inhibition of human OVCAR5 cells assessed as cell growth at 3X10'-7 M after 48 hrs by sulforhodamine B assay; conditions: OVCAR-5, 48 h, read-out: Activity
K562 [21] = assay: Growth inhibition of human K562 cells assessed as cell growth at 3X10'-9 M after 48 hrs by sulforhodamine B assay; conditions: K562, 48 h, read-out: Activity
SK-MEL-5 [22] = assay: Growth inhibition of human SK-MEL-5 cells assessed as cell growth at 3X10'-8 M after 48 hrs by sulforhodamine B assay; conditions: SK-MEL-5, 48 h, read-out: Activity

| SMILES | growth at 0.3 µM (HT-29) [%] | growth at 3 µM (SF-539 [1]) [%] | growth at 0.03 µM (OVCAR-8 [2]) [%] | growth at 0.3 µM (TK-10 [3]) [%] | growth at 0.003 µM (OVCAR-8 [4]) [%] | growth at 30 µM (OVCAR-3) [%] | growth at 0.003 µM (HCT-15 [5]) [%] | growth at 3 µM (HCT-116 [6]) [%] | growth at 0.3 µM (HCT-15 [7]) [%] | growth at 0.03 µM (SF-539 [8]) [%] | growth at 3 µM (UO-31) [%] | growth at 3 µM (ACHN) [%] | growth at 3 µM (SK-MEL-5 [9]) [%] | growth at 0.3 µM (786-0 [10]) [%] | growth at 30 µM (OVCAR-8 [11]) [%] | growth at 30 µM (K562 [12]) [%] | growth at 30 µM (COLO 205) [%] | growth at 0.03 µM (HOP-92 [13]) [%] | growth at 0.3 µM [14] [%] | growth at 30 µM (NCI-H226) [%] | also measured |
| --- | --- | --- | --- | --- | --- | --- | --- | --- | --- | --- | --- | --- | --- | --- | --- | --- | --- | --- | --- | --- | --- |
| COc1cc(-c2nn(-c3cccc(NC(=O)Nc4ccc(Cl)c(C(F)(F)F)c4)c3)cc2-c2ccncc2)ccc1Cl | 102 | 33 | 101 | 101 | 105 | -46 | 94 | 11 | 95 | 93 | 3 | 8 | -5 | 101 | -13 | 1 | -94 | 74 | 98 | 3 | growth at 0.3 µM (SNB-75): 88%; growth at 3 µM (T47D): 18%; growth at 3 µM (TK-10 [15]): 25%; growth at 0.3 µM (HOP-92 [16]): 70%; growth at 30 µM (DU-145): 2%; growth at 0.03 µM (HCT-116 [17]): 103%; growth at 0.3 µM (SN12C): 91%; growth at 3 µM (A498): 12%; growth at 0.3 µM (OVCAR-4): 96%; growth at 0.003 µM (PC-3): 95%; growth at 3 µM (IGROV-1): 5%; growth at 0.003 µM (A549 [18]): 95%; growth at 30 µM (A549 [19]): -5%; growth at 0.03 µM (786-0 [20]): 102%; growth at 0.3 µM (OVCAR-5): 89%; growth at 0.003 µM (K562 [21]): 110%; growth at 0.03 µM (SK-MEL-5 [22]): 91% |
| COc1cc(-c2nn(-c3cccc(NC(=O)c4ccc(Cl)c(C(F)(F)F)c4)c3)cc2-c2ccncc2)ccc1Cl | 93 | 57 | 98 | 108 | 100 | -12 | 99 | 44 | 94 | 102 | 29 | 47 | 24 | 99 | 15 | 11 | -13 | 85 | 91 | 23 | growth at 0.3 µM (SNB-75): 77%; growth at 3 µM (T47D): 40%; growth at 3 µM (TK-10 [15]): 74%; growth at 0.3 µM (HOP-92 [16]): 73%; growth at 30 µM (DU-145): 10%; growth at 0.03 µM (HCT-116 [17]): 101%; growth at 0.3 µM (SN12C): 93%; growth at 3 µM (A498): 47%; growth at 0.3 µM (OVCAR-4): 89%; growth at 0.003 µM (PC-3): 94%; growth at 3 µM (IGROV-1): 40%; growth at 0.003 µM (A549 [18]): 96%; growth at 30 µM (A549 [19]): 16%; growth at 0.03 µM (786-0 [20]): 96%; growth at 0.3 µM (OVCAR-5): 90%; growth at 0.003 µM (K562 [21]): 99%; growth at 0.03 µM (SK-MEL-5 [22]): 97% |
| O=C(Nc1cccc(-n2cc(-c3ccncc3)c(-c3ccc(Cl)c(O)c3)n2)c1)Nc1ccc(Cl)c(Cl)c1 | 110 | 27 | 98 | 112 | 103 | -37 | 102 | 13 | 99 | 95 | 19 | 5 | -73 | 103 | 7 | 4 | -70 | 93 | 102 | 12 | growth at 0.3 µM (SNB-75): 83%; growth at 3 µM (T47D): 26%; growth at 3 µM (TK-10 [15]): 31%; growth at 0.3 µM (HOP-92 [16]): 86%; growth at 30 µM (DU-145): 9%; growth at 0.03 µM (HCT-116 [17]): 100%; growth at 0.3 µM (SN12C): 101%; growth at 3 µM (A498): -1%; growth at 0.3 µM (OVCAR-4): 105%; growth at 0.003 µM (PC-3): 103%; growth at 3 µM (IGROV-1): 29%; growth at 0.003 µM (A549 [18]): 96%; growth at 30 µM (A549 [19]): 8%; growth at 0.03 µM (786-0 [20]): 96%; growth at 0.3 µM (OVCAR-5): 104%; growth at 0.003 µM (K562 [21]): 100%; growth at 0.03 µM (SK-MEL-5 [22]): 96% |
